How the values were obtained:
rat [1] = settings: Subchronic oral toxicity in rodents, other, Feed, dose end: 3 month, group: systemic
rat [2] = settings: Prenatal developmental toxicity study, sprague dawley, Oral, Gavage/Intubation, dose end: 15 GD
rat [3] = settings: Multigenerational reproductive toxicity study, other, Oral, Feed, dose end: 2 generation
dog [4] = settings: Chronic toxicity, beagle, Oral, Feed, dose end: 52 week, group: systemic
rat [5] = settings: Prenatal developmental toxicity study, sprague dawley, Oral, Gavage/Intubation, dose end: 15 GD; remark: listed apart in the source
dog [6] = settings: Subchronic oral toxicity in nonrodent, beagle, Feed, dose end: 13 week, group: systemic, systemic / pathology microscopic / stomach / [other]
mouse [7] = settings: Subchronic oral toxicity in rodents, cd1, Feed, dose end: 13 week, group: systemic
mouse [8] = settings: Subchronic oral toxicity in rodents, cd1, Feed, dose end: 17 week, group: systemic, systemic / organ weight / liver / absolute + systemic / organ weight / liver / relative to body weight + systemic / organ weight / liver / …
mouse [9] = settings: Subchronic oral toxicity in rodents, cd1, Feed, dose end: 13 week, group: systemic, systemic / pathology microscopic / liver / hypertrophy + systemic / pathology microscopic / liver / necrosis + systemic / pathology …
rat [10] = settings: Combined chronic toxicity/carcinogenicity, sprague dawley, Oral, Feed, dose end: 24 month, group: systemic
mouse [11] = settings: Carcinogenicity, cd1, Oral, Feed, dose end: 24 month, group: systemic
rabbit = settings: Prenatal developmental toxicity study, new zealand white, Oral, Gavage/Intubation, dose end: 19 GD
mouse [12] = settings: Carcinogenicity, cd1, Oral, Feed, dose end: 18 month, group: systemic
[13] = systemic / in life observation / body weight / body weight gain
[14] = group: developmental, developmental / developmental malformation / bone / short + developmental / developmental malformation / bone / unossified + developmental…
[15] = group: maternal, systemic / in life observation / body weight / body weight gain + systemic / in life observation / food consumption / food consumption
[16] = group: maternal, systemic / in life observation / body weight / body weight gain + systemic / in life observation / food consumption / food consumption + …
[17] = group: offspring, systemic / in life observation / body weight / offspring (pup) weight + systemic / pathology microscopic / liver / hypertrophy
[18] = group: offspring, systemic / in life observation / body weight / offspring (pup) weight + systemic / pathology microscopic / liver / hypertrophy + …
[19] = group: parental, systemic / pathology microscopic / liver / hypertrophy
[20] = group: parental, systemic / pathology microscopic / liver / hypertrophy + systemic / in life observation / food consumption / food consumption + systemic / …
[21] = group: reproductive, reproductive / offspring survival early / litter size / litter size + reproductive / offspring survival early / birth index / live birth …
[22] = systemic / pathology microscopic / mammary gland / hypertrophy
[23] = systemic / pathology microscopic / stomach / hyperemia
[24] = group: developmental, developmental / developmental malformation / mouth / jaw / cleft palate + systemic / in life observation / body weight / fetal weight
[25] = group: maternal, systemic / in life observation / body weight / body weight gain + systemic / in life observation / clinical signs / ataxia + systemic / in …
[26] = systemic / pathology microscopic / liver / hypertrophy + systemic / pathology microscopic / liver / necrosis + systemic / pathology …
[27] = systemic / in life observation / body weight / body weight gain + systemic / pathology microscopic / liver / hypertrophy + systemic / …
[28] = systemic / pathology microscopic / liver / lesion(s) (nos) + systemic / organ weight / liver / nos
[29] = group: developmental, developmental / developmental malformation / bone / full supernumerary
[30] = systemic / pathology microscopic / liver / hypertrophy + systemic / organ weight / liver / absolute + systemic / organ weight / liver / …

**Q.** Which results are given for CCCC1COC(Cn2cncn2)(c2ccc(Cl)cc2Cl)O1 (configuration not stated) [Propiconazole]?
**A.** LEL (rat [1]; [13]): 16.8 mg/kg/day; LOAEL (rat [1]; [13]): 77.6 mg/kg/day; NEL (rat [1]; [13]): < 16.8 mg/kg/day; NOAEL (rat [1]; systemic / in life observation / body weight / body weight gain + systemic / clinical chemistry / alkaline phosphatase (alp/alk) / alkaline …): 16.8 mg/kg/day; LEL (rat [2]; [14]): 90 mg/kg/day; LOAEL (rat [2]; [14]): 90 mg/kg/day; NEL (rat [2]; [14]): 30 mg/kg/day; NOAEL (rat [2]; [14]): 30 mg/kg/day; LEL (rat [2]; [15]): 90 mg/kg/day; NEL (rat [2]; [16]): 30 mg/kg/day; NOAEL (rat [2]; [16]): 90 mg/kg/day; LOAEL (rat [2]; group: maternal, systemic / in life observation / clinical signs / ataxia + systemic / in life observation / clinical signs / lethargy + systemic / in life …): 300 mg/kg/day; NEL (rat [3]; [17]): 48 mg/kg/day; NOAEL (rat [3]; [17]): 48 mg/kg/day; LEL (rat [3]; [18]): 238 mg/kg/day; LOAEL (rat [3]; [18]): 238 mg/kg/day; LEL (rat [3]; [19]): 42 mg/kg/day; LOAEL (rat [3]; [19]): 42 mg/kg/day; NEL (rat [3]; [20]): 8 mg/kg/day; NOAEL (rat [3]; [20]): 8 mg/kg/day; LEL (rat [3]; [21]): 238 mg/kg/day; LOAEL (rat [3]; [21]): > 238 mg/kg/day; NEL (rat [3]; [21]): 48 mg/kg/day; NOAEL (rat [3]; [21]): ≥ 238 mg/kg/day; LEL (dog [4]; [22]): 1.9 mg/kg/day; NEL (dog [4]; [22]): 0.2 mg/kg/day; LOAEL (dog [4]; [23]): 8.4 mg/kg/day; NOAEL (dog [4]; [23]): 1.9 mg/kg/day; LEL (rat [5]; [24]): 300 mg/kg/day; LOAEL (rat [5]; [24]): > 300 mg/kg/day; NEL (rat [5]; [24]): < 300 mg/kg/day; NOAEL (rat [5]; [24]): ≥ 300 mg/kg/day; LEL (rat [5]; [25]): 300 mg/kg/day; LOAEL (rat [5]; [25]): 300 mg/kg/day; NEL (rat [5]; [25]): < 300 mg/kg/day; NOAEL (rat [5]; [25]): < 300 mg/kg/day; LEL (dog [6]): 6.25 mg/kg/day; LOAEL (dog [6]): 6.25 mg/kg/day; NEL (dog [6]): 1.25 mg/kg/day; NOAEL (dog [6]): 1.25 mg/kg/day; LOAEL (mouse [7]; systemic / pathology microscopic / liver / hypertrophy): 65 mg/kg/day; LEL (mouse [7]; systemic / pathology microscopic / liver / hypertrophy + systemic / pathology microscopic / liver / necrosis): 65 mg/kg/day; NEL (mouse [7]; [26]): 2.7 mg/kg/day; NOAEL (mouse [7]; [26]): 2.7 mg/kg/day; LEL (mouse [8]): 65 mg/kg/day; LOAEL (mouse [8]): 65 mg/kg/day; NEL (mouse [8]): 2.7 mg/kg/day; NOAEL (mouse [8]): 2.7 mg/kg/day; LEL (mouse [9]): 65 mg/kg/day; LOAEL (mouse [9]): 65 mg/kg/day; NEL (mouse [9]): 2.7 mg/kg/day; NOAEL (mouse [9]): 2.7 mg/kg/day; LEL (rat [10]; [27]): 96.4 mg/kg/day; LOAEL (rat [10]; [27]): 96.4 mg/kg/day; NOAEL (rat [10]; [27]): 18.1 mg/kg/day; NEL (rat [10]; systemic / organ weight / liver / nos): 18.1 mg/kg/day; NEL (mouse [11]; systemic / organ weight / liver / nos + systemic / clinical chemistry / alanine aminotransferase (alt/sgpt) / alanine aminotransferase (alt/…): 10 mg/kg/day; LEL (mouse [11]; [28]): 49.4 mg/kg/day; LOAEL (mouse [11]; [28]): 49.4 mg/kg/day; NOAEL (mouse [11]; systemic / pathology microscopic / liver / lesion(s) (nos) + systemic / organ weight / liver / nos + systemic / pathology microscopic / …): 10 mg/kg/day; LEL (rabbit; [29]): 400 mg/kg/day; LOAEL (rabbit; [29]): > 400 mg/kg/day; NEL (rabbit; [29]): 250 mg/kg/day; NOAEL (rabbit; [29]): ≥ 400 mg/kg/day; LEL (rabbit; [15]): 250 mg/kg/day; LOAEL (rabbit; [15]): 250 mg/kg/day; NEL (rabbit; [16]): 100 mg/kg/day; NOAEL (rabbit; [16]): 100 mg/kg/day; LOAEL (mouse [12]; systemic / pathology microscopic / liver / hypertrophy + systemic / in life observation / body weight / body weight gain): 59 mg/kg/day; LEL (mouse [12]; systemic / pathology microscopic / liver / hypertrophy + systemic / in life observation / body weight / body weight gain + systemic / organ …): 59 mg/kg/day; NEL (mouse [12]; [30]): 11 mg/kg/day; NOAEL (mouse [12]; [30]): 11 mg/kg/day

— EPA's ToxRefDB 2
